Experimental findings from patent US20260240844A1, “INHIBITORS OF CHD1L AND USES THEREOF” (The Regents of the University of Colorado, a body corporate, priority 2023, published 2026) are described below.

Structures are written as SMILES. Entries after “also recorded” stand apart in the source; their conditions may differ. Read-outs that look alike come from different tables or passages of the source.

One test has as its system AIF in SUM149PT cells. The experiment in a line: AIF immunofluorescence in SUM149PT (SUM149) cells. It is filed as cell-based. Conditions: SUM149PT cells; single agent, 18 h.
The target of another test is PARP2 (Homo sapiens, UniProt Q9UGN5). The experiment in a line: PARP2 enzymatic (colorimetric) assay. It counts as biochemical. The method, then:
. First, a 96 well plate was coated with histones. Next, the biotinylated NAD^+ substrate was incubated with an activated DNA template, the inhibitor to test and the PARP1/2 enzyme for 1 h at RT. After that, the sample plate was treated with streptavidin-RP for 30 min at RT, followed by addition of the horseradish peroxidase (HRP) substrate until the colorimetric signal was developed. The EnVision plate reader (PerkinElmer) was used to measure the absorbance at 450 nm and the results were plotted and analyzed using GraphPad Prism.

The next test concerns the target T1, cat-CHD1L (Homo sapiens, UniProt Q86WJ1).
T1 construct: made in house; host or cells: Rosetta 2 (DE3) pLysS cells (E. coli)
T1 sequence (Q86WJ1 16-619): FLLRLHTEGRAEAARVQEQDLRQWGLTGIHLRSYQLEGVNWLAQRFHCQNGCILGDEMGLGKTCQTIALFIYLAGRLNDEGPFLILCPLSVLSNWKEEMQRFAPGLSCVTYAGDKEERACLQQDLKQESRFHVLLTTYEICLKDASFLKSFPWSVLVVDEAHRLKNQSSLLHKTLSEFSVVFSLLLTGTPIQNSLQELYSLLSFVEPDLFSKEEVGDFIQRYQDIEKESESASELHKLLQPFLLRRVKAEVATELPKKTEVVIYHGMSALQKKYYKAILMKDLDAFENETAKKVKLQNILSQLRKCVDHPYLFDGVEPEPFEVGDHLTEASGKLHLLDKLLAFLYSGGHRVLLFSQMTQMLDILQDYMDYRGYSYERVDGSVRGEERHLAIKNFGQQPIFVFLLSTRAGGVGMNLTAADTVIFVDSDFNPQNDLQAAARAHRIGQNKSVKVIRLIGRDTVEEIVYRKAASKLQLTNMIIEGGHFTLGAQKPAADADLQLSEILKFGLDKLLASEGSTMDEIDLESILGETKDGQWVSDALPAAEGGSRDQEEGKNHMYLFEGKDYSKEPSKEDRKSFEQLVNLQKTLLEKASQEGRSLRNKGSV
Briefly: CHD1L ATPase assay measured by ADP-Glo. It counts as biochemical. On the technique in general: ADP-Glo turns the ADP formed in a reaction into a luminescent signal.

Test [1] deals with SW620 tumor organoids. The experiment in a line: cells. Conditions: Homo sapiens.
Test [2] has as its system SW620 tumor organoids. Conditions: SW620 tumor organoids; combined with Compound 6.11.
The next test relates to MiaPaca2 cells. Briefly: MiaPaca2 cell viability, combination with chemotherapy. The following applies: Homo sapiens, MIA PaCa-2, MiaPaca2 cells, read-out: IC50 5-FU. It is filed as cell-based. The text has this:
The cell viability assays and Bliss synergy analyses are as described above in Examples 1-9 and 11-12.

The subject of the next test is Colo678 cells. Briefly: Colo678 cell viability, combination with chemotherapy. It is filed as cell-based. Conditions: Homo sapiens, COLO-678, Colo678 cells, read-out: IC50 5-FU.
For another test, the system named is SW948 tumor organoids. Briefly: cells. The procedure:
ATM is an important protein involved in the initial stages of the DNA damage response. […] ATM mutations are important markers being developed to identify metastatic CRC (mCRC) patients that may be sensitive to DNA damaging chemotherapy.
Synergy was assessed using the Bliss model.

Chain of PARP2 (Q9UGN5 whole entry): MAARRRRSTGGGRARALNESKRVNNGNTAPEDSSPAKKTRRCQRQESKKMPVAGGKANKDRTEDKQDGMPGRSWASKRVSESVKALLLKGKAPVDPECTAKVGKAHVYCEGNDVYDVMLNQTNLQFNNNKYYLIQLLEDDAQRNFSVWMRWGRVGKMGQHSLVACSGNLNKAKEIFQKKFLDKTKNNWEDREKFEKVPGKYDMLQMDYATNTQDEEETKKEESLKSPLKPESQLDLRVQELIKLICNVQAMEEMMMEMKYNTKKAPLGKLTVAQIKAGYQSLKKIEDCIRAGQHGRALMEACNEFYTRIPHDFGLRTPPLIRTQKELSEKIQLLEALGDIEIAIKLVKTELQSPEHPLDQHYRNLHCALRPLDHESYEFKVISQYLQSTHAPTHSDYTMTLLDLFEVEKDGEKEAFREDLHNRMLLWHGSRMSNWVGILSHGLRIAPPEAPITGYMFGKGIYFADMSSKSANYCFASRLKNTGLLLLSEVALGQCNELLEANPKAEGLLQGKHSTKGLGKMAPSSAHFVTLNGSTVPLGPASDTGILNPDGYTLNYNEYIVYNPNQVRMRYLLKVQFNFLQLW
Protocol for cat-CHD1L: No enzyme control was used to measure the background. […] The reaction was incubated at 37° C. for 1 h. The assay plate was brought to RT before 5 μL of ADP-glo™ Reagent (Promega, Cat. No. V9102) was added to remove unreacted ATP. The ATP depletion step was carried out at RT for 40 min before 10 μL of Kinase Detection Reagent was added and incubated for 30-60 min to convert the ADP produced from the enzyme assay back to ATP for luciferase rection to convert to light for detection. An EnVision plate reader (PerkinElmer) was used to detect luminescence from the ADP-glo assay and the enzyme activity was determined after background subtraction and normalization to enzyme only control.

Take `Cc1cc(Nc2ccc(NC(=O)Cc3cccs3)cc2)nc(N2CCCC2)n1` [Compound 6, N-(4-((6-methyl-2-(pyrrolidin-1-yl)pyrimidin-4-yl)amino)phenyl)-2-(thiophen-2-yl)acetamide]: in the test on AIF in SUM149PT cells, the “cytoplasmic AIF” value is listed as “decrease in cytoplasmic AIF” and the “nuclear AIF” value was “significantly increasing AIF in the nucleus”. Further, the PARP2 enzyme activity result at PARP2 was “does not have any effect on PARP1/2 activity”. Besides, at cat-CHD1L, the “inhibition of CHD1L ATPase activity” value is listed as “potently inhibited”.

By IC50 is commonly meant the concentration at which inhibition is half-maximal. As to `O=C(c1cc(Cc2n[nH]c(=O)c3ccccc23)ccc1F)N1CCN(C(=O)C2CC2)CC1` [olaparib], the half-maximal inhibitory concentration (IC50) in the test with SW620 tumor organoids [1] (SW-620, read-out: IC50 olaparib, SW620 tumor organoids, combined with Compound 6.11) is 800 nM; in the test with SW620 tumor organoids [1] (SW-620, read-out: IC50 olaparib, SW620 tumor organoids, olaparib alone) it was 282000 nM. In the test on SW620 tumor organoids [2], the “enhancement of olaparib potency” value is on record as ~ 355 fold. Besides, the “cytoplasmic AIF” value with AIF in SUM149PT cells is “increased cytoplasmic AIF; also recorded: increase in the AIF intensity in the cytoplasm”. Moreover, in the test with AIF in SUM149PT cells, the “nuclear AIF” value is given as “did not enhance nuclear AIF; also recorded: no translocation of this protein to the nucleus”. For the same compound, the PARP2 enzyme activity result at PARP2 is “inhibits both PARP1 and PARP2”. Besides, the “inhibition of CHD1L ATPase activity” value at cat-CHD1L is “do not trap CHD1L or inhibit CHD1L ATPase activity”.

Take `COc1cccc2c1C(=O)c1c(O)c3c(c(O)c1C2=O)C[C@@](O)(C(=O)CO)C[C@@H]3O[C@H]1C[C@H](N)[C@H](O)[C@H](C)O1` [doxorubicin]: the “nuclear AIF” value in the test with AIF in SUM149PT cells is listed as “some increase of AIF in the nucleus”. In addition, the “inhibition of CHD1L ATPase activity” value at cat-CHD1L is on record as “do not trap CHD1L or inhibit CHD1L ATPase activity”.

With `O=c1[nH]cc(F)c(=O)[nH]1` [Compound 5-FU, 5-fluorouracil], the IC50 in the test on SW620 tumor organoids [1] (SW-620, 72 h, read-out: IC50 5FU, SW620 tumor organoids, 72 h, 5FU alone) was greater than 200000 nM; in the test with SW620 tumor organoids [1] (SW-620, 72 h, read-out: IC50 5FU, SW620 tumor organoids, 72 h, + Compound 6.11 2.75 μM) it was 2880 nM; in the test on MiaPaca2 cells (Compound 6.11 0 μM), 238 µM; with MiaPaca2 cells (Compound 6.11 4 μM), 74.4 µM; in the test on MiaPaca2 cells (Compound 6.11 4.25 μM) it was 68.7 µM; in the test on MiaPaca2 cells (Compound 6.11 4.5 μM), 38.3 µM. Also, the IC50 in the test on MiaPaca2 cells (Compound 7 0 μM) came to 68.2 µM; in the test with MiaPaca2 cells (Compound 7 7 μM) it was 61.8 µM; in the test with MiaPaca2 cells (Compound 7 8 μM), 56.7 µM; in the test on MiaPaca2 cells (Compound 7 9 μM), 46.7 µM; with MiaPaca2 cells (Compound 8 0 μM), 55.6 µM; with MiaPaca2 cells (Compound 8 2 μM) it was 66.2 µM. In addition, the IC50 with MiaPaca2 cells (Compound 8 2.25 μM) is 60.4 µM; with MiaPaca2 cells (Compound 8 2.5 μM) it was 53.8 µM; in the test with MiaPaca2 cells (Compound 12 0 μM), 69.7 µM; in the test on MiaPaca2 cells (Compound 12 3.75 μM), 32 µM; with MiaPaca2 cells (Compound 12 4 μM) it was 16.3 µM; in the test on MiaPaca2 cells (Compound 12 4.25 μM) it was 15.9 µM. Further, the IC50 was 57.2 µM in the test with MiaPaca2 cells (Compound 13 0 μM); 60.9 µM with MiaPaca2 cells (Compound 13 5 μM); 58.5 µM with MiaPaca2 cells (Compound 13 6 μM); 50.7 µM in the test on MiaPaca2 cells (Compound 13 […]); 3430 µM with Colo678 cells (Compound 6.11 0 μM); 717 µM in the test on Colo678 cells (Compound 6.11 3 μM). Besides, the IC50 is 99.4 µM in the test on Colo678 cells (Compound 6.11 3.25 μM); 58.5 µM in the test with Colo678 cells (Compound 6.11 3.5 μM); 75100 µM with Colo678 cells (Compound 12 0 μM); 549 µM in the test with Colo678 cells (Compound 12 1 μM); 392 µM in the test on Colo678 cells (Compound 12 1.5 μM); 205 µM in the test on Colo678 cells (Compound 12 2 μM). In addition, the concentration for half-maximal inhibition (IC50) with Colo678 cells (Compound 13 0 μM) was found to be 7520 µM; in the test on Colo678 cells (Compound 13 3.5 μM), 544 µM; with Colo678 cells (Compound 13 3.75 μM), 432 µM; in the test on Colo678 cells (Compound 13 4 μM), 246 µM; in the test with Colo678 cells (Compound 14 2.5 μM), 149 µM; in the test on Colo678 cells (Compound 14 2.75 μM), 74.7 µM. Moreover, the IC50 was found to be 50.4 µM with Colo678 cells (Compound 14 3 μM); 14800 µM in the test on Colo678 cells (Compound 20 0 μM); 170 µM in the test on Colo678 cells (Compound 20 3.5 μM); 60 µM with Colo678 cells (Compound 20 4 μM); 34.5 µM in the test on Colo678 cells (Compound 20 4.5 μM); 302 µM in the test with SW948 tumor organoids (Homo sapiens, SW948, read-out: IC50 of chemotherapy alone). Moreover, the “increase in potency of the chemotherapy” value in the test on SW948 tumor organoids (SW948 tumor organoids, combined with Compound 6) is reported as roughly 300 fold.
